These results are taken from patent US8163909B2, “Substituted hydroxyethyl amine compounds as beta-secretase modulators and methods of use” (Amgen Inc., priority 2007, dated 2012).

Where two headings read alike, the source gives them in different places.

The target of series [1] is Beta Secretase enzyme (BACE) (Homo sapiens, UniProt P56817). In words: In vitro enzymatic BACE FRET (fluorescence resonance energy transfer) assay.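 Further: fluorescence read after 1 h with 50 nM quenched peptide substrate spanning the BACE cleavage site, in pH 4.2 acetate buffer containing 10% DMSO and nonionic detergent.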 It is filed as biochemical.
Sequence of Beta Secretase enzyme (BACE) (P56817 46-501): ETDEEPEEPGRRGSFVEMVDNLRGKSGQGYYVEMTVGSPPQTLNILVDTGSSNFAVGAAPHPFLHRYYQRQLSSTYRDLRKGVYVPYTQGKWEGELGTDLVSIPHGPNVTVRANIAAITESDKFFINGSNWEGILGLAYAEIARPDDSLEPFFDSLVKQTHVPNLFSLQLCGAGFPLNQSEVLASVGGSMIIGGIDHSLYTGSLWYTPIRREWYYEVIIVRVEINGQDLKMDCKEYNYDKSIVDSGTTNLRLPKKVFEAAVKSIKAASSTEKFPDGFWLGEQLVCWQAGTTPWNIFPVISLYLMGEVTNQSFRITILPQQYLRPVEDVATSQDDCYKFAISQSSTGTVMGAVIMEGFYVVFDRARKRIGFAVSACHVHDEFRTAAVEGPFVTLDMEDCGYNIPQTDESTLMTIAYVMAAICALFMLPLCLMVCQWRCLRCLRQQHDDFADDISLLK
Series [2] relates to Aβ40 in conditioned medium of cells stably expressing Amyloid Precursor Protein (APP). In words: In vitro BACE cell-based assay (Aβ40 in conditioned medium, sandwich ELISA).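 Further: compounds added as a dilution series, secreted peptide quantified by europium time-resolved fluorescence readout, potency fitted from percent of control versus compound concentration.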 As to conditions: Homo sapiens.
Another series has as its target CYP3A4 (CYP3A) (Homo sapiens, UniProt P08684). In words: in vitro. Conditions: microsomes, pH 7.4.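 Further: inhibition of CYP3A-mediated 1-hydroxymidazolam formation after 10 min incubation with NADPH, quantified by HPLC MS relative to metabolite produced without test compound.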
The nature of series [3]: Microsomal stability assay, rat liver microsomes.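 Further: rat liver microsomes (0.25 mg/mL) with about 1 µM compound plus 1 mM NADPH, pH 7.4, 37 °C for 30 min, parent left measured by LC-MS/MS against 0 min.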
The nature of series [4]: Microsomal stability assay, human liver microsomes.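 Further: pooled human liver microsomes at 0.25 mg/mL with 1 µM compound and NADPH at 37 °C, pH 7.4, for 30 min, unchanged parent quantified by LC-MS/MS against the 0 min sample.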
The next series concerns the target CYP2D6 (Homo sapiens, UniProt P10635). In words: CYP2D6 inhibition assay (bufuralol, pooled human liver microsomes).
The mark [5] stands for this setting: BACE enzyme assay, read-out: BACE1 FRET assay.
Where [6] appears, read: HEK293, HEK cells, read-out: HEK cell assay.
Where [7] appears, read: 2D6 IC50 (uM), CYP enzyme inhibition.
The mark [8] stands for this setting: read-out: BACE1 FRET assay (IC50).
[9] abbreviates: HEK293, HEK cells, read-out: HEK cell assay (IC50).
Setting [10] is: BACE enzyme assay, IC50's in uM, read-out: BACE1 FRET assay.
[11] abbreviates: 2D6 IC50, CYP enzyme inhibition.
Where [12] appears, read: BACE enzyme assay IC50, read-out: BACE1 FRET assay.
Where [13] appears, read: HEK293, HEK cell-based assay IC50, read-out: HEK cell assay.
Setting [14] is: 2D6 IC50 (uM), CYP2D6 inhibition.
[15] abbreviates: HEK293, HEK cell-based assay, IC50's in uM, read-out: HEK cell assay.

Sequence of CYP2D6 (P10635 whole entry): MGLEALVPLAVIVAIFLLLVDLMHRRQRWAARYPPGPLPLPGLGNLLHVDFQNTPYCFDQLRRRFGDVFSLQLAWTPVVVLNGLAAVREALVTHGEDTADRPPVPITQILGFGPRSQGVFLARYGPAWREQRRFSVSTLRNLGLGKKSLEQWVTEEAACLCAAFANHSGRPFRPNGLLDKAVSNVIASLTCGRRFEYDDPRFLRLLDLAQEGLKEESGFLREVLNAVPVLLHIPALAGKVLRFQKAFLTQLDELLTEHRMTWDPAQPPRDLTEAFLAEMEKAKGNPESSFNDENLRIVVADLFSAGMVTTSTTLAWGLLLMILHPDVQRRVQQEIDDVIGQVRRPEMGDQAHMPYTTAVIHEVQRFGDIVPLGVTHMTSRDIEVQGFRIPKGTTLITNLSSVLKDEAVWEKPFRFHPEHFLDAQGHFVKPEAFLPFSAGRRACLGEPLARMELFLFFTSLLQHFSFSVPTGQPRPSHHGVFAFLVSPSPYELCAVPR
Sequence of CYP3A4 (CYP3A) (P08684 2-503): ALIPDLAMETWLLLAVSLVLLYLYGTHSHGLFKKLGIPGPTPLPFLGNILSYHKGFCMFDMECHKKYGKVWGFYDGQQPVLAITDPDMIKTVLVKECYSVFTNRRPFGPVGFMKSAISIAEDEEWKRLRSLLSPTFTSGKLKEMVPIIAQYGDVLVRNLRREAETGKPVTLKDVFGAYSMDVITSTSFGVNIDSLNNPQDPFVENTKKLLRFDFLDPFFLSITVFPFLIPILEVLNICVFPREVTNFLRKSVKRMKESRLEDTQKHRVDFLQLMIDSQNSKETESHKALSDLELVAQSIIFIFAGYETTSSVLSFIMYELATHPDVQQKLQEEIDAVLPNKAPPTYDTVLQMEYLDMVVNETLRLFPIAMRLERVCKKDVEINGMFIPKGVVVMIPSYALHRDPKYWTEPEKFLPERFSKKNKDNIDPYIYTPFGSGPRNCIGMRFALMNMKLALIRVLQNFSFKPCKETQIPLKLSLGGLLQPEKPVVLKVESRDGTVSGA

Consider `COCC(=O)N[C@@H](Cc1cccc(F)c1)[C@H](O)CN[C@H]1CC2(CCC2)Oc2c1cc(CC(C)(C)C)cc2-n1ccnc1` [compound 505], for which the IC50 in series [1] (setting [5]) stood at 0.019 µM; in series [2] (setting [6]) it was 0.006 µM; at CYP3A4 (CYP3A), 100 nM; against CYP2D6 (setting [7]), 1.9 µM. In series [3] (rat liver microsomal data), the “RLM” value worked out at 153 µL/min/mg. Moreover, the “HLM” value in series [4] (human liver microsomal data) was 51.5 µL/min/mg.
Take `CC(=O)N[C@@H](Cc1cccc(-c2ccncc2)c1)[C@H](O)CN[C@H]1CC2(CCC2)Oc2ccc(CC(C)(C)C)cc21` [compound 618]: the IC50 in series [1] (setting [8]) is 0.031 µM; in series [2] (setting [9]), 0.038 µM; at CYP3A4 (CYP3A), 160 nM; on CYP2D6 (2D6 IC50, CYP2D6 inhibition), 0.3 µM. In series [3] (rat liver microsomes), this compound yielded an RLM of 344 µL/min/mg. This compound had an HLM in series [4] (human liver microsomes) of 413 µL/min/mg.
Regarding `CO[C@H](C)C(=O)N[C@@H](Cc1cc(Cl)ccc1F)[C@H](O)CN[C@H]1CC2(CCC2)Oc2ncc(CC(C)(C)C)cc21` [compound 899], the IC50 in series [1] (setting [10]) was 0.005 µM; in series [2] (HEK293, cell-based assay, HEK cells, IC50's in uM, read-out: HEK cell assay), 0.009 µM; against CYP3A4 (CYP3A), 100 nM; against CYP2D6 (setting [11]), 2.6 µM. Moreover, the RLM in series [3] (rat liver microsomal data) was 543 µL/min/mg. Also, the HLM in series [4] (human liver microsomal data) is 443 µL/min/mg.
`CC(C)(C)Cc1cnc2c(c1)[C@@H](NC[C@@H](O)[C@H](Cc1ccc(F)cc1)NC(=O)COC(F)F)CC1(CCC1)O2` [compound 647]: the IC50 in series [1] (setting [8]) is 0.008 µM; in series [2] (setting [9]), 0.039 µM; on CYP3A4 (CYP3A), 400 nM; against CYP2D6 (2D6 IC50, CYP2D6 inhibition), 2.7 µM. This compound also had an RLM in series [3] (rat liver microsomes) of 269 µL/min/mg. Further, the HLM in series [4] (human liver microsomes) was determined as 303 µL/min/mg.
With `CO[C@H](C)C(=O)N[C@@H](Cc1cc(F)cc(Cl)c1)[C@H](O)CN[C@H]1CC2(CCC2)Oc2cnc(CC(C)(C)F)cc21` [compound 719], the IC50 in series [1] (setting [12]) was 0.024 µM; in series [2] (setting [13]) it was 0.13 µM; at CYP3A4 (CYP3A), 400 nM; against CYP2D6 (setting [14]), 2.4 µM. Besides, in series [3] (rat liver microsomes), the “RLM” value turned out to be 775 µL/min/mg. In addition, the “HLM” value in series [4] (human liver microsomes) was 515 µL/min/mg.
With `COCC(=O)N[C@@H](Cc1ccc(F)cc1)[C@H](O)CN[C@H]1CC2(CCC2)Oc2c(-c3cnc[nH]3)cc(CC(C)C)cc21` [compound 513], the IC50 stood at 0.088 µM in series [1] (setting [5]), 0.013 µM in series [2] (setting [6]), 200 nM at CYP3A4 (CYP3A) and 2.5 µM on CYP2D6 (setting [7]). Also, the “RLM” value in series [3] (rat liver microsomal data) is 82 µL/min/mg. Further, the “HLM” value in series [4] (human liver microsomal data) was 143 µL/min/mg.
For the compound `COCC(=O)N[C@@H](Cc1ccc(-c2nccs2)cc1)[C@H](O)CN[C@H]1CC2(CCC2)Oc2ncc(CC(C)C)cc21` [Example 434, N-((2S,3R)-3-hydroxy-4-((S)-6-isobutyl-2,2-spirocyclobutyl-3,4-dihydro-2H-pyrano[2,3-b]pyridin-4-ylamino)-1-(4-(thiazol-2-yl)phenyl)butan-2-yl)-2-methoxyacetamide], the IC50 in series [1] (setting [10]) was 0.075 µM; in series [2] (setting [15]), 0.273 µM; on CYP3A4 (CYP3A), 200 nM; against CYP2D6 (setting [7]) it was 1.3 µM. In addition, the “RLM” value in series [3] (rat liver microsomal data) came out at 60 µL/min/mg. Besides, in series [4] (human liver microsomal data), the “HLM” value worked out at 80 µL/min/mg.
With `CC(=O)N[C@@H](Cc1cccc(-c2ccncc2)c1)[C@H](O)CN[C@H]1CC2(CCC2)Oc2ncc(CC(C)(C)C)cc21` [compound 616, N-((1S,2R)-3-(((4′S)-6′-(2,2-dimethylpropyl)-3′,4′-dihydrospiro[cyclobutane-1,2′-pyrano[2,3-b]pyridin]-4′-yl)amino)-2-hydroxy-1-(3-(4-pyridinyl)benzyl)propyl)acetamide], the IC50 stood at 0.017 µM in series [1] (setting [8]); 0.01 µM in series [2] (setting [9]); 160 nM at CYP3A4 (CYP3A); 0.3 µM on CYP2D6 (2D6 IC50, CYP2D6 inhibition). In series [3] (rat liver microsomes), this compound yielded an RLM of 96 µL/min/mg. This compound also came in with an HLM in series [4] (human liver microsomes) of 228 µL/min/mg.
Consider `CC#Cc1ccc2c(c1)[C@@H](NC[C@@H](O)[C@H](Cc1cc(F)cc(-c3nccs3)c1)NC(=O)COC)CC1(CCC1)O2` [compound 806], for which the IC50 in series [1] (setting [10]) was found to be 0.669 µM; in series [2] (setting [15]), 4.15 µM; against CYP3A4 (CYP3A), 200 nM; at CYP2D6 (setting [7]) it was 0.6 µM. Besides, the “RLM” value in series [3] (rat liver microsomal data) worked out at 92 µL/min/mg. Besides, the “HLM” value in series [4] (human liver microsomal data) amounted to 61 µL/min/mg.
On to `COCC(=O)N[C@@H](Cc1cccc(F)c1)[C@H](O)CN[C@H]1CC2(CCC2)Oc2c(-c3ccnc(Cl)c3)cc(CC(C)(C)C)cc21` [compound 639, N-((1S,2R)-3-(((4S)-8-(2-chloro-4-pyridinyl)-6-(2,2-dimethylpropyl)-3,4-dihydrospiro[chromene-2,1′-cyclobutan]-4-yl)amino)-1-(3-fluorobenzyl)-2-hydroxypropyl)-2-methoxyacetamide], for which the IC50 in series [1] (setting [8]) was 0.005 µM; in series [2] (setting [9]), 0.025 µM; at CYP3A4 (CYP3A), 1200 nM; at CYP2D6 (2D6 IC50, CYP2D6 inhibition), 1.8 µM. This compound also gave an RLM in series [3] (rat liver microsomes) of 399 µL/min/mg. The HLM in series [4] (human liver microsomes) was 706 µL/min/mg.
For `COCC(=O)N[C@@H](Cc1cc(F)cc(F)c1)[C@H](O)CN[C@H]1CC2(CCC2)Oc2c1cc(CC(C)(C)C)cc2-n1ccnc1` [compound 475], the IC50 in series [1] (Table 2, read-out: BACE1 FRET assay) was 0.018 µM; in series [2] (HEK293, Table 2, HEK cells, read-out: HEK cell assay), 0.008 µM; on CYP3A4 (CYP3A) it was 50 nM; against CYP2D6 (setting [11]) it was 1.75 µM. This compound also registered an RLM in series [3] (rat liver microsomal data) of 128.5 µL/min/mg. The compound also had an HLM in series [4] (human liver microsomal data) of 26 µL/min/mg.
Turning to `COCC(=O)N[C@@H](Cc1cc(F)cc(F)c1)[C@H](O)CN[C@H]1CC2(CCC2)Oc2c1cc(CC(C)C)nc2-c1cncn1C` [compound 715], the IC50 was 0.02 µM in series [1] (setting [12]), 0.016 µM in series [2] (setting [13]), no more than 30 nM against CYP3A4 (CYP3A) and 1.8 µM against CYP2D6 (setting [14]). Further, in series [3] (rat liver microsomes), the “RLM” value came out at 34 µL/min/mg. In addition, the “HLM” value in series [4] (human liver microsomes) was found to be 19 µL/min/mg.
Consider `CC(=O)N[C@@H](Cc1ccc(F)c(-c2nccs2)c1)[C@H](O)CN[C@H]1CC2(CCC2)Oc2ncc(CC(C)(C)C)cc21` [compound 621, N-((1S,2R)-3-(((4′S)-6′-(2,2-dimethylpropyl)-3′,4′-dihydrospiro[cyclobutane-1,2′-pyrano[2,3-b]pyridin]-4′-yl)amino)-1-(4-fluoro-3-(1,3-thiazol-2-yl)benzyl)-2-hydroxypropyl)acetamide], for which the IC50 in series [1] (setting [8]) was found to be 0.001 µM; in series [2] (setting [9]) it was 0.01 µM; at CYP3A4 (CYP3A), 160 nM; against CYP2D6 (2D6 IC50, CYP2D6 inhibition), 0.9 µM. In addition, the RLM in series [3] (rat liver microsomes) worked out at 64 µL/min/mg. Also, the HLM in series [4] (human liver microsomes) was found to be 45 µL/min/mg.
As for `C#Cc1cc(C[C@H](NC(=O)COC)[C@H](O)CN[C@H]2CC3(CCC3)Oc3ncc(CC(C)C)cc32)ccc1F` [compound 780, N-((1S,2R)-1-(3-ethynyl-4-fluorobenzyl)-2-hydroxy-3-(((4′S)-6′-(2-methylpropyl)-3′,4′-dihydrospiro[cyclobutane-1,2′-pyrano[2,3-b]pyridin]-4′-yl)amino)propyl)-2-methoxyacetamide], the IC50 in series [1] (setting [10]) stood at 0.01 µM; in series [2] (setting [15]) it was 0.032 µM; at CYP3A4 (CYP3A), 100 nM; against CYP2D6, 1.4 µM. Also, in series [3] (rat liver microsomal data), the “RLM” value stood at 74 µL/min/mg. Moreover, the “HLM” value in series [4] (human liver microsomal data) was found to be 61 µL/min/mg.
